Test results from patent publication USRE48253E1, “Methotrexate adjuvants to reduce toxicity and methods for using the same” (Tosk, Inc., priority 2008, dated 2020).

Tests used:
[1] = system: C57Bl/6 female mice; experiment: Mouse Study II: MTX-induced loss of mucosal permeability (plasma iodixanol); type: in vivo; settings: day 7
Description: C57Bl/6 female mice (n=7) were treated intraperitoneal (ip) with 100 mg/kg MTX on days 2, 3 and 4 with and without 60 mg/kg TK-112690 (ip) three hours before, and after, MTX injections. On day 7, mucosal barrier injury was estimated by measuring plasma concentrations of orally administered iodixanol determined by HPLC using UV detection (Boxplots with minimum and maximum values (black lines). Orally administered iodixanol is not absorbed absent an increase in mucosal permeability. Group 1=saline control, Group 2=MTX and Group 3=MTX+TK-112690.
The aim of this study was to evaluate the ability of a representative a 2,2′-anhydropyrimidine test article to mitigate MTX-induced loss of mucosal permeability. C57Bl/6 female mice (n=7) were treated (ip) with 100 mg/kg MTX on days 2, 3 and 4 with and without 60 mg/kg TK-112690 (ip) three hours before, and after, MTX injections. On day 7, mucosal barrier injury was estimated by measuring plasma concentrations of orally administered iodixanol determined by HPLC using UV detection. Orally administered iodixanol is not absorbed absent an increase in mucosal permeability.

[2] = system: C57BL/6 mice; experiment: Mouse Study III: MTX-induced infection measured as WBC counts; type: in vivo; settings: Day 11
Description: C57BL/6 mice (n=10/dose group), treated i.p. 50 mg/kg MTX on Day 1, 2, 3, 4, 6 and 8 along with 60 mg/kg TK-1126901.p. 3 hr±MTX followed by single daily doses TK-112690 on days not treated with MTX. On Day 11, the animals were sacrificed and hematology performed on the resulting blood. Group 1=saline control, Group 2=MTX control and Group 3=MTX+TK-112690.
Several parameters have been examined in an effort to develop a model to confirm the protection from mucositis observed in the LPS/MTX assay. On examination of complete blood counts (CBCs), consistently elevated levels of white blood cell counts (WBCs) are observed when mice are treated with MTX (FIG. 4). This increase is not observed in animals that are also treated with TK-112690 (FIG. 4). […] LPS is a large molecule on the outer membrane of Gram negative bacteria. Tissues exposed to LPS express pro-inflammatory cytokines such as TNF-α and […]. Increases in these cytokines due to exposure of tissues to LPS generate an immune response which, in turn, increases WBCs.
For the study whose data are presented in FIG. 4, C57BL/6 mice (n=10/dose group) were treated i.p. with 50 mg/kg MTX on Day 1, 2, 3, 4, 6 and 8 along with 60 mg/kg TK-1126901.p. 3 hr±MTX followed by single daily doses TK-112690 on days not treated with MTX. On Day 11, the animals were bled and hematology performed on the resulting blood samples. […]

[3] = system: CCRF-CEM cells; experiment: Cell Culture Study I: MTX cytotoxicity, alamarBlue; type: cell-based, human; settings: 72 hours
Description: In this study, CCRF-CEM cells purchased from ATCC were cultured and then 12 tubes containing approximately 10^6 cells each treated for 72 hours with media (Group1), MTX 0.03 μM (Group2), MTX+Leucovorin 1 μM (Group3), MTX+Leucovorin 10 μM (Group4), MTX+Leucovorin 100 μM (Group5), MTX+TK-112690 1 μM (Group6), MTX+TK-112690 10 μM (Group7) and MTX+TK-112690 100 μM (Group8). […] Viability was measured as percent reduction of alamarBlue absorbance.
The tumor cell line CCR-CEM (human T-cell acute lymphoblastic leukemia) is obtained from American Type Culture Collection (CRL-1593.2) and cultured in accordance with the product information sheet with the following exceptions: 55.3 cm^2 Petri dishes are used instead of 75 cm^2 culture flasks, and 1% penicillin-streptomycin solution (HyClone SV30010) and 1% GlutaMAX™ (Gibco 35050) are added to the culture medium.
TK-112690, the representative 2,2′-anhydropyrimidine test article, is dissolved in 40% DMSO, sterile filtered then diluted with sterile distilled water to obtain initial working solutions of 10, 100 and 1000 μM. In testing, a 100 fold dilution is made in culture media to give final assay concentrations of 0.1, 1.0 and 10.0 μM. MTX (SAFC Biosciences M8407) is dissolved in sterile distilled water and 5 N NaOH then sterile filtered. The final pH of the stock solution is 7.8 and working solutions are made with sterile distilled water for final assay concentrations of 30, 3.0, 0.3, 0.03 and 0.003 μM. Leucovorin (Sigma F-7878) is dissolved in sterile distilled water, sterile filtered and diluted with sterile distilled water for final assay concentrations of 0.1, 1.0 and 10.0 μM.
Aliquots of 100 μL of cell suspension are plated in 96 well microtiter plates (Corning costar 3595) and placed in an atmosphere of 5% CO2 at 37° C. (Fisher Scientific Isotemp 3500 CO2 Incubator). After 24 hours, 100 μL of growth medium [RPMI-1640 w/L-glutamine (Cambrex 12-702Q) fortified with sodium pyruvate (HyClone SH30239.01), fetal bovine serum (SAFC Biosciences 12107C) and HEPES buffer (Gibco 15630)] and 2 μL of test solution or vehicle are added respectively per well and the plates incubated for an additional 72 hour incubation. MTX is evaluated at concentrations of 0.003, 0.03, 0.30 and 3.0 μM alone or in combination with either a 2,2′-anhydropyrimidine test article or Leucovorin at concentrations of 0.1, 1.0, 10.0 μM. At the end of incubation, the efficacy of anti-cell proliferation is determined by optical absorbance at λ=570 and 600 nm [Spectramax 250 (Molecular Devices)] in accordance with the standard alamarBlue™ (Biosource) protocol.
Group 1 is the cell control (media treated). Group 2 corresponds to cells treated with 0.03 μM MTX. Group 3 are cells treated with 1.0 μM Leucovorin. Group 4 are cells treated with 0.1 μM Leucovorin. Group 5 are cells treated with 10 μM TK-112690. Group 6 are cells treated with MTX+10 μM TK-112690. Group 7 are cells treated with MTX+1.0 μM TK-112690. Group 8 MTX+0.1 μM TK-112690.

Compound	protection from MTX-induced mucosal barrier injury (plasma concentration of orally administered iodixanol) ([1]; 60 mg/kg ip three hours before and after MTX 100 mg/kg, days 2, 3, 4)	protection from MTX-induced mucositis measured as WBC counts ([2]; 60 mg/kg ip with MTX 50 mg/kg)	effect on MTX cytotoxicity (viability, alamarBlue) ([3]; combined with MTX 0.03 μM)	viability, agent alone vs control ([3]; without MTX)	mucosal barrier injury (plasma concentration of orally administered iodixanol) ([1]; 100 mg/kg MTX ip on Days 2, 3 and 4)	systemic WBC ([2]; 50 mg/kg MTX ip Day 1, 2, 3, 4, 6 and 8)	viability, MTX alone vs cell control ([3]; MTX 0.03 μM)
Cc1cn2c(nc1=O)O[C@H]1[C@H](O)[C@@H](CO)O[C@H]12 [TK-112690, 2,2′-anhydro-5-methyluridine]	protected mice from MTX-induced mucosal barrier injury	protects from MTX-induced mucositis	do not interfere with methotrexate cytotoxicity	not statistically different than control	–	–	–
CN(Cc1cnc2nc(N)nc(N)c2n1)c1ccc(C(=O)N[C@@H](CCC(=O)O)C(=O)O)cc1 [MTX, N-[4-[[(2,4-diamino-6-pteridinyl)methyl]methylamino]benzoyl]-L-glutamic acid, reference compound]	–	–	–	–	experienced mucosal barrier injury	increases systemic WBC	statistically significantly different from Group1
